Measured values reported in US20240199676A1, “ANTIVIRAL COMPOUNDS AND METHODS OF MAKING AND USING THE SAME” (Gilead Sciences, Inc., priority 2022, published 2024).

Legend:
[1] = GI S9 stability (Ex. Z), rat intestinal S9; assay type: in vitro ADME; conditions: pooled intestinal S9 fractions; rat intestinal S9, 1.0 mg/mL protein, 2 μM substrate, pH 7.4; read-out: GIS9 Rat T½ (per Ex. Z)
Summary of the method: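 Pooled intestinal S9 at 1.0 mg/mL protein in PBS, pH 7.4, with substrate at 2 μM final, sampled at 0–120 min and quenched in methanol/acetonitrile containing labetalol. Remaining parent quantified by LC-MS peak area ratio. Half-life from first-order exponential decline fit.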

[2] = GI S9 stability (Ex. Z), dog intestinal S9; assay type: in vitro ADME; conditions: pooled intestinal S9 fractions; dog intestinal S9, 1.0 mg/mL protein, 2 μM substrate, pH 7.4; read-out: GIS9 DOG T½ (per Ex. Z)
Method: (§1) Example Z: GI S9 stability data:
(§2) Stock solutions of test compounds in dimethyl sulfoxide (DMSO) having a final concentration of 10 mM were prepared and used in all experiments. Sekisui XenoTech (Kansas City, KS) provided pooled intestinal S9 fractions. All other chemicals were purchased from Sigma-Aldrich (St. Louis, MO) or VWR (West Chester, PA). Internal Standard/Quench (IS/Q) used to stop reactions was 100 nM labetalol in (by volume) methanol (10%) and acetonitrile (90%).
(§3) Stability in Intestinal S9 Fractions: Duplicate aliquots of test compound or positive control substrate were added to S9 stock diluted with phosphate buffered saline (137 mM NaCl, 2.7 mM KCl, 10 mM phosphate buffer), pH 7.4, to obtain a protein concentration of 1.0 mg/mL. The metabolic reactions were initiated by the addition of the substrates to the S9 reaction mixture to a final concentration of 2 μM. At 0, 10, 20, 30, 60 and 120 min, 25 μL aliquots of the reaction mixture were transferred to plates containing 225 μl of IS/Q solution. After quenching, the plates were centrifuged at 3000×g for 30 minutes. 150 μL aliquots of each supernatant were dried down then reconstituted with 300 μL water. Aliquots (10 μL) of the prepared samples were analyzed on a Thermo Q-Exactive mass spectrometer as described below.
(§4) Liquid Chromatography—Mass Spectrometry: Quantification of test compounds and control substrate was performed by analyte/internal standard peak area ratio (PAR) values measured on a Thermo Q-Exactive mass spectrometer coupled to a Dionex UltiMate 3000 HPLC with a Leap Technologies HTC PAL autosampler. The column used for analysis was a Waters Acquity BEH C18 (1.7 μm particle size, 2.1×50 mm). Mobile phase A consisted of 0.1% (v/v) formic acid in water. Mobile phase B consisted of 0.1% (v/v) formic acid in acetonitrile. Elution of analytes was achieved by a series of linear gradients varying the proportions of A and B. The mass spectrometer was calibrated on a weekly basis and mass tolerance of 5 ppm was used.
(§5) Metabolic stabilities in S9 fractions were determined by measuring the rates of disappearance of test compound and positive control substrate.
(§6) Data (% of substrate remaining) were plotted on a semi-log scale and fitted using an exponential decline model:
(§7) Where Ct—% of substrate remaining at time=t; C0—% of substrate remaining at time=0; t—time; T½—half-life The Half-life (T½) is determined by the following equation: […]
(§8) Assuming a first-order reaction, the slope (k) is extrapolated from the aforementioned plotted data.

[3] = GI S9 stability (Ex. Z), cyno intestinal S9; assay type: in vitro ADME; conditions: cynomolgus monkey, pooled intestinal S9 fractions; cyno intestinal S9, 1.0 mg/mL protein, 2 μM substrate, pH 7.4; read-out: GIS9 Cyno T½ (per Ex. Z)
Method: as §1, §2, §3, §4, §5, §6, §7, §8

[4] = system: Respiratory syncytial virus recombinant with luciferase (RSV-Luc5) in HEp-2 cells; assay: HEp-2 RSV-Luc5 384-well Assay (EC50 RSVFLUC Hep2-384 v2, Ex. V); assay type: cell-based; conditions: human respiratory syncytial virus, HEp-2, 72 h, read-out: EC50 RSV FLuc Hep-2 384 V2 (per Ex. V)
Summary of the method: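 HEp-2 cells (4,000/well) with 10-point 1:3 compound dilutions were infected with RSV-Luc5 at MOI 0.5 and incubated 3 days at 37 °C. Replication was read by One-Glo luminescence and normalized to remdesivir (0%) and DMSO (100%) controls. EC50 is the concentration reducing replication by 50%, from non-linear regression.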

SMILES	half-life at 2 μM [1] [min]	half-life at 2 μM [2] [min]	half-life at 2 μM [3] [min]	EC50 [4] [µM]
CCC(CC)C(=O)Nc1ncnn2c([C@@H]3O[C@](C#N)(COC(=O)C(CC)CC)[C@@H](O)[C@H]3O)ccc12 [Compound 11, ((2R,3S,4R,5S)-2-cyano-5-(4-(2-ethylbutanamido)pyrrolo[2,1-f][1,2,4]triazin-7-yl)-3,4-dihydroxytetrahydrofuran-2-yl)methyl 2-ethylbutanoate]	37	95	19	41.5
N#C[C@]1(COC(=O)C2CCCC2)O[C@@H](c2ccc3c(N)ncnn23)[C@H](O)[C@@H]1O [Compound 18, ((2R,3S,4R,5S)-5-(4-aminopyrrolo[2,1-f][1,2,4]triazin-7-yl)-2-cyano-3,4-dihydroxytetrahydrofuran-2-yl)methyl cyclopentanecarboxylate]	3	26	3	23.3
CC(=O)OC[C@@]1(C#N)O[C@@H](c2ccc3c(N)ncnn23)[C@H](O)[C@@H]1O [Compound 4, ((2R,3S,4R,5S)-5-(4-aminopyrrolo[2,1-f][1,2,4]triazin-7-yl)-2-cyano-3,4-dihydroxytetrahydrofuran-2-yl)methyl acetate]	9	41	9	15.7
N#C[C@]1(COC(=O)CC2CCC2)O[C@@H](c2ccc3c(N)ncnn23)[C@H](O)[C@@H]1O [Compound 16, ((2R,3S,4R,5S)-5-(4-aminopyrrolo[2,1-f][1,2,4]triazin-7-yl)-2-cyano-3,4-dihydroxytetrahydrofuran-2-yl)methyl 2-cyclobutylacetate]	4	89	3	18.3
CC1(C(=O)OC[C@@]2(C#N)O[C@@H](c3ccc4c(N)ncnn34)[C@H](O)[C@@H]2O)CC1 [Compound 15, ((2R,3S,4R,5S)-5-(4-aminopyrrolo[2,1-f][1,2,4]triazin-7-yl)-2-cyano-3,4-dihydroxytetrahydrofuran-2-yl)methyl 1-methylcyclopropane-1-carboxylate]	23	789	123	31.6
CC(C)CC(=O)OC[C@@]1(C#N)O[C@@H](c2ccc3c(N)ncnn23)[C@H](O)[C@@H]1O [Compound 3, ((2R,3S,4R,5S)-5-(4-aminopyrrolo[2,1-f][1,2,4]triazin-7-yl)-2-cyano-3,4-dihydroxytetrahydrofuran-2-yl)methyl 3-methylbutanoate]	12	497	17	26.4
